# Data: PubChem BioAssay (NCI)
#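 Cells were grown in 96-well plates and exposed to each compound for 48 hours at five concentrations; endpoints were interpolated linearly between bracketing concentrations, or set to the highest concentration if not reached. Here, GI50 denotes the concentration required for 50% inhibition of growth. TGI is the concentration that stops growth completely.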
# What was measured:
# Experiment in all cases: growth of human tumour cells (NCI), 48 h
# SW-620 colon = system: SW-620 colon
# ACHN renal = system: ACHN renal
# IGROV1 ovarian = system: IGROV1 ovarian
# HL-60(TB) leukemia = system: HL-60(TB) leukemia
# UO-31 renal = system: UO-31 renal
# MOLT-4 leukemia = system: MOLT-4 leukemia
# MDA-MB-231 breast = system: MDA-MB-231 breast
# SK-MEL-5 melanoma = system: SK-MEL-5 melanoma
# MCF7 breast = system: MCF7 breast
# UACC-62 melanoma = system: UACC-62 melanoma
# HOP-62 NSCLC = system: HOP-62 NSCLC
# K-562 leukemia = system: K-562 leukemia
# U251 CNS = system: U251 CNS
# RXF 393 renal = system: RXF 393 renal
# SK-MEL-2 melanoma = system: SK-MEL-2 melanoma
# SR leukemia = system: SR leukemia
# CAKI-1 renal = system: CAKI-1 renal
# A498 renal = system: A498 renal
# SN12C renal = system: SN12C renal
# MALME-3M melanoma = system: MALME-3M melanoma
# HOP-92 NSCLC = system: HOP-92 NSCLC
# SNB-19 CNS = system: SNB-19 CNS
# OVCAR-8 ovarian = system: OVCAR-8 ovarian
# RPMI-8226 leukemia = system: RPMI-8226 leukemia
# SF-295 CNS = system: SF-295 CNS
# NCI-H226 lung = system: NCI-H226 lung
# HCT-116 colon = system: HCT-116 colon
# MDA-MB-468 breast = system: MDA-MB-468 breast
# UACC-257 melanoma = system: UACC-257 melanoma
# LOX IMVI melanoma = system: LOX IMVI melanoma
# OVCAR-3 ovarian = system: OVCAR-3 ovarian
# 786-0 renal = system: 786-0 renal
# SF-268 CNS = system: SF-268 CNS
# EKVX NSCLC = system: EKVX NSCLC
# NCI-H522 lung = system: NCI-H522 lung
# DU-145 prostate = system: DU-145 prostate
# COLO 205 colon = system: COLO 205 colon
# MDA-MB-435 = system: MDA-MB-435
# SK-MEL-28 melanoma = system: SK-MEL-28 melanoma
# T-47D breast = system: T-47D breast
# CCRF-CEM leukemia = system: CCRF-CEM leukemia
# PC-3 prostate = system: PC-3 prostate
# HT29 colon = system: HT29 colon
# SNB-75 CNS = system: SNB-75 CNS
# SF-539 CNS = system: SF-539 CNS
# BT-549 breast = system: BT-549 breast
# NCI-H460 lung = system: NCI-H460 lung
# OVCAR-4 ovarian = system: OVCAR-4 ovarian
# OVCAR-5 ovarian = system: OVCAR-5 ovarian
# A549 NSCLC = system: A549 NSCLC
# KM12 colon = system: KM12 colon
# HCC-2998 colon = system: HCC-2998 colon
# SK-OV-3 ovarian = system: SK-OV-3 ovarian
# HCT-15 colon = system: HCT-15 colon
# M14 melanoma = system: M14 melanoma
# TK-10 renal = system: TK-10 renal
# NCI-H23 lung = system: NCI-H23 lung
# HS 578T breast = system: HS 578T breast
compound,measurement,setting,value
O=C1Nc2ccc(Cl)cc2/C1=C/c1ccc(OCc2ccc(Br)cc2F)cc1,GI50,SW-620 colon,2.8 µM
same,TGI,SW-620 colon,10.3 µM
same,GI50,ACHN renal,2.19 µM
same,TGI,ACHN renal,5.29 µM
same,GI50,IGROV1 ovarian,4.11 µM
same,TGI,IGROV1 ovarian,15.5 µM
same,GI50,HL-60(TB) leukemia,10.9 µM
same,TGI,HL-60(TB) leukemia,26.1 µM
same,GI50,UO-31 renal,1.46 µM
same,TGI,UO-31 renal,6.65 µM
same,GI50,MOLT-4 leukemia,4.63 µM
same,TGI,MOLT-4 leukemia,19.2 µM
same,GI50,MDA-MB-231 breast,3.21 µM
same,TGI,MDA-MB-231 breast,12.2 µM
same,GI50,SK-MEL-5 melanoma,10.8 µM
same,TGI,SK-MEL-5 melanoma,23.1 µM
same,GI50,MCF7 breast,2.95 µM
same,TGI,MCF7 breast,14.2 µM
same,GI50,UACC-62 melanoma,3.72 µM
same,TGI,UACC-62 melanoma,15.4 µM
same,GI50,HOP-62 NSCLC,3.14 µM
same,TGI,HOP-62 NSCLC,11.7 µM
same,GI50,K-562 leukemia,3.87 µM
same,TGI,K-562 leukemia,15.3 µM
same,GI50,U251 CNS,2.03 µM
same,TGI,U251 CNS,4.07 µM
same,GI50,RXF 393 renal,4.73 µM
same,TGI,RXF 393 renal,18.1 µM
same,GI50,SK-MEL-2 melanoma,15.5 µM
same,TGI,SK-MEL-2 melanoma,30.1 µM
same,GI50,SR leukemia,2.72 µM
same,TGI,SR leukemia,9.16 µM
same,GI50,CAKI-1 renal,2.05 µM
same,TGI,CAKI-1 renal,7.06 µM
same,GI50,A498 renal,2.45 µM
same,TGI,A498 renal,5.42 µM
same,GI50,SN12C renal,4.62 µM
same,TGI,SN12C renal,18.7 µM
same,GI50,MALME-3M melanoma,2.76 µM
same,TGI,MALME-3M melanoma,9.8 µM
same,GI50,HOP-92 NSCLC,2.12 µM
same,TGI,HOP-92 NSCLC,6.91 µM
same,GI50,SNB-19 CNS,4.06 µM
same,TGI,SNB-19 CNS,15.7 µM
same,GI50,OVCAR-8 ovarian,3.74 µM
same,TGI,OVCAR-8 ovarian,15.1 µM
same,GI50,RPMI-8226 leukemia,9.01 µM
same,TGI,RPMI-8226 leukemia,24 µM
same,GI50,SF-295 CNS,3.24 µM
same,TGI,SF-295 CNS,12.1 µM
same,GI50,NCI-H226 lung,2.66 µM
same,TGI,NCI-H226 lung,11.5 µM
same,GI50,HCT-116 colon,3.13 µM
same,TGI,HCT-116 colon,10.7 µM
same,GI50,MDA-MB-468 breast,8.46 µM
same,TGI,MDA-MB-468 breast,21.9 µM
same,GI50,UACC-257 melanoma,13 µM
same,TGI,UACC-257 melanoma,27.6 µM
same,GI50,LOX IMVI melanoma,2.88 µM
same,TGI,LOX IMVI melanoma,10 µM
same,GI50,OVCAR-3 ovarian,3.28 µM
same,TGI,OVCAR-3 ovarian,10.1 µM
same,GI50,786-0 renal,3.06 µM
same,TGI,786-0 renal,8.32 µM
same,GI50,SF-268 CNS,5.01 µM
same,TGI,SF-268 CNS,17.7 µM
same,GI50,EKVX NSCLC,4.51 µM
same,TGI,EKVX NSCLC,22.1 µM
same,GI50,NCI-H522 lung,3.31 µM
same,TGI,NCI-H522 lung,11.1 µM
same,GI50,DU-145 prostate,10.2 µM
same,TGI,DU-145 prostate,26.6 µM
same,GI50,COLO 205 colon,9.18 µM
same,TGI,COLO 205 colon,37.5 µM
same,GI50,MDA-MB-435,9.81 µM
same,TGI,MDA-MB-435,22.2 µM
same,GI50,SK-MEL-28 melanoma,5.42 µM
same,TGI,SK-MEL-28 melanoma,17.4 µM
same,GI50,T-47D breast,10.9 µM
same,TGI,T-47D breast,30.8 µM
same,GI50,CCRF-CEM leukemia,4.55 µM
same,TGI,CCRF-CEM leukemia,17.7 µM
same,GI50,PC-3 prostate,3.79 µM
same,TGI,PC-3 prostate,16.6 µM
same,GI50,HT29 colon,12.9 µM
same,TGI,HT29 colon,29.1 µM
same,GI50,SNB-75 CNS,2 µM
same,TGI,SNB-75 CNS,7.32 µM
same,GI50,SF-539 CNS,6.32 µM
same,TGI,SF-539 CNS,19.1 µM
same,GI50,BT-549 breast,9.48 µM
same,TGI,BT-549 breast,26.8 µM
same,GI50,NCI-H460 lung,2.1 µM
same,TGI,NCI-H460 lung,4.38 µM
same,GI50,OVCAR-4 ovarian,2.06 µM
same,TGI,OVCAR-4 ovarian,4.67 µM
same,GI50,OVCAR-5 ovarian,13 µM
same,TGI,OVCAR-5 ovarian,42.9 µM
same,GI50,A549 NSCLC,3.25 µM
same,TGI,A549 NSCLC,11.3 µM
same,GI50,KM12 colon,8.56 µM
same,TGI,KM12 colon,25.7 µM
same,GI50,HCC-2998 colon,20.5 µM
same,TGI,HCC-2998 colon,65.7 µM
same,GI50,SK-OV-3 ovarian,4.2 µM
same,TGI,SK-OV-3 ovarian,17.9 µM
same,GI50,HCT-15 colon,5.77 µM
same,TGI,HCT-15 colon,21 µM
same,GI50,M14 melanoma,4.97 µM
same,TGI,M14 melanoma,18.6 µM
same,GI50,TK-10 renal,6.75 µM
same,TGI,TK-10 renal,22.9 µM
same,GI50,NCI-H23 lung,2.98 µM
same,TGI,NCI-H23 lung,12.2 µM
same,GI50,HS 578T breast,2.37 µM
same,TGI,HS 578T breast,6.69 µM
